In general, EC50 refers to the concentration needed to bring the measured effect to its halfway point. Low values mean greater potency, high ones weaker potency. The IC50 is the concentration that gives 50% inhibition. Low readings indicate greater potency in that assay, high ones weaker potency in that assay.

Molecules are shown by their SMILES. Structures can show the parent of a compound that is named as a salt.

The target in one assay is T1, β3 -adrenergic receptor (Rattus norvegicus, UniProt P26255).
T1 construct: Rat epididymal fat pads are excised and placed in 0.9% saline; from tissue; host or cells: rat epididymal fat pads, collagenase-isolated adipocytes
T1 sequence (P26255 whole entry): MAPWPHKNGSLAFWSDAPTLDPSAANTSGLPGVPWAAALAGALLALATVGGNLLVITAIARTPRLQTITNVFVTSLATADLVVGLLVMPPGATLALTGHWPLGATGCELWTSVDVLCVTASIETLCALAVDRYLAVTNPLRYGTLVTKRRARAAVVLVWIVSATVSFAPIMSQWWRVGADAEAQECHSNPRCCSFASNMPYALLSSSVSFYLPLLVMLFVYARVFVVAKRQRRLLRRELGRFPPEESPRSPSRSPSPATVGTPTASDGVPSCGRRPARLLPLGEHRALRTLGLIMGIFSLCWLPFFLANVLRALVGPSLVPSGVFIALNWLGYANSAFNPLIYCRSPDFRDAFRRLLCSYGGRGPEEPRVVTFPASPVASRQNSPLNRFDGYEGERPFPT
The experiment in a line: Lipolysis (β3-effect): stimulation of adipocyte lipolysis, glycerol release. It is filed as cell-based. As to conditions: rat epididymal adipocytes, 30 minutes, 37° C.; concentration giving 50% of the maximum rate of lipolysis of that compound. How it is done: (§1) Selectivity of a compound is determined using the following procedures.
The β3 -effect of the compounds is determined by their ability to stimulate adipocyte lipolysis. Rat epididymal fat pads are excised and placed in 0.9% saline. Four grams of tissue is transferred to a flask with 20 ml of aerated KrebsHenseleit bicarbonate (KHB) buffer containing 3% fatty acid-free bovine serum albumin to which 75 mg of crude bacterial collagenase (Worthington) has been added. The tissue is incubated for about 45 minutes at 37° C. with gentle shaking. The cells are then washed three times with two volumes of KHB buffer, filtered through two layers of gauze, and brought to a final volume of 80 ml with KHB buffer. One-ml-aliquots of the cell suspension is added to plastic test tubes containing the appropriate additions of vehicle or compound. The cells are gassed for 1 minute with 95% O2 -5% CO2, capped, and incubated at 37° C. with continuous shaking for a total of 30 minutes. The reaction is stopped by adding 0.1 ml of 30 % perchloric acid and 0.1 ml of chloroform. […] The amount of glycerol generated from the hydrolysis of endogenous triglycerides is determined in a coupled-enzyme spectrophotometric assay. […] The amount of NADH generated, which is proportional to the amount of glycerol, is determined by the increase in absorbance at 340 nm. […]

The target in assay [1] is T2, β1 -adrenergic receptor (Rattus norvegicus, UniProt P18090).
T2 construct: membranes from rat heart; from tissue; host or cells: rat heart membranes
T2 sequence (P18090 whole entry): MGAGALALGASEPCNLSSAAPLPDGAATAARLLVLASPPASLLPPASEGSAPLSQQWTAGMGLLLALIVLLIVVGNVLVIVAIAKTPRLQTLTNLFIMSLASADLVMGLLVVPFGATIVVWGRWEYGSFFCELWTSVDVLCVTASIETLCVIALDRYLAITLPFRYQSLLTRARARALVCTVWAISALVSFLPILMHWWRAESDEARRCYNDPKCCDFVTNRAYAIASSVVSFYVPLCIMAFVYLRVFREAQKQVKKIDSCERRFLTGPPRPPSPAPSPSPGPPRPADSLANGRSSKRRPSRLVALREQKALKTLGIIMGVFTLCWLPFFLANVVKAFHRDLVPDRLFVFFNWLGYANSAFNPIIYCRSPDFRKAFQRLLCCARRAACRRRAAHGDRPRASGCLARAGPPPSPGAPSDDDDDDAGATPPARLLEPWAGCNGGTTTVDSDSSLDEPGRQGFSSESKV
The experiment in a line: Heart Binding (β1): binding assay with membranes from rat heart. As to conditions: rat heart membranes, [^125 I]iodo-cyanopindolol, 1 hour. How it is done: as §1
(§2) Binding assays for β1 -effect are carried out by the use of membranes from rat heart, and β2 -effect by the use of membranes from rat lung by the method described in Neve, et. al., J. Pharmacol. Exp. Ther., 1985, 235, 657-664 with the following exceptions:
(§3) 1. the incubation volume is 0.5 ml,
(§4) 2. the incubation time is 1 hour,
(§5) 3. the radioligand is [^125 I]iodo-cyanopindolol,
(§6) 4. (--) - isoproterenol (50 μM) is used to define […], and
(§7) 5. the filters are washed at 4° C.

Assay [2] deals with β1 -adrenergic receptor. The description is as above. The conditions noted are these: β3 lipolysis vs β1 heart binding. How it is done: as §1, §2, §3, §4, §5, §6, §7
Assay [3] deals with T3, β2 (Rattus norvegicus, UniProt P10608).
T3 construct: membranes from rat lung; from tissue; host or cells: rat lung membranes
T3 sequence (P10608 whole entry): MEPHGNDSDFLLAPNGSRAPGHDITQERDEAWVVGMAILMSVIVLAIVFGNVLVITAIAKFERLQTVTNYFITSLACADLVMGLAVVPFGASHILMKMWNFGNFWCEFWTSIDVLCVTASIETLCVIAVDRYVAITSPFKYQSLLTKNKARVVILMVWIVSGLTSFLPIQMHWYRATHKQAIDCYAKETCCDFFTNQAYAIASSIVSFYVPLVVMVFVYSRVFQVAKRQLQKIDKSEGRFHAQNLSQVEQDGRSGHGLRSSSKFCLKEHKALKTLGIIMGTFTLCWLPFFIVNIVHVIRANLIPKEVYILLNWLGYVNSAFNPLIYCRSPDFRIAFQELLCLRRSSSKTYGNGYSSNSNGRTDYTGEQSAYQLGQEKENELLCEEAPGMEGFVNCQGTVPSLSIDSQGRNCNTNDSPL
The experiment in a line: Lung Binding (β2): binding assay with membranes from rat lung. The conditions noted are these: rat lung membranes, [^125 I]iodo-cyanopindolol, 1 hour. How it is done:
as §1, §2, §3, §4, §5, §6, §7

The test system of assay [4] is β2. The assay is described as above. As to conditions: printed β3; Table 1 indicates β2 (lung binding). How it is done: as §1, §2, §3, §4, §5, §6, §7

At β3 -adrenergic receptor, `C[C@H](Cc1ccc2c(c1)OC(C(=O)O)(C(=O)O)O2)NCC(O)COc1cccc2ccccc12` (mixture of isomers) [Example 1, (R,R) and (S,R)-5-[2-[[2-Hydroxy-3-(1-naphthalenyloxy)propyllamino]propyl-1,3-benzodioxole-2,2-dicarboxylic acid, disodium salt] returned an EC50 of 264 nM. In addition, the values for the IC50 on β1 -adrenergic receptor [1] and on β2 [3] were 1520 nM and 360 nM, respectively. The “selectivity for the β3 -adrenergic receptor over the β1 -adrenergic receptor” value in the assay on β1 -adrenergic receptor [2] is on record as “shows selectivity”. Further, in the assay on β2 [4], the “selectivity when compared to the β3 -receptor” value is “not selective”.

The record behind these values is US5480908A, “β3 -adrenergic agents benzodioxole dicarboxylates and their use in pharmaceutical compositions” (American Cyanamid Company, priority 1993, dated 1996).
